One test addresses T1, PI3K delta (Homo sapiens, UniProt O00329).
T1 construct: for the full-length p110-d subunit are generated and fused by overlapping PCR; His tag (C); made in house; host or cells: baculovirus; Tn5 (Trichoplusia ni) or TiniPro insect cells
The test can be described thus: Enzymatic PI3K delta isoform inhibition (lipid kinase activity, Kinase-Glo). Particulars: enzymatic assay. In kind it is biochemical. The procedure: (§1) In a more preferred assay, the kinase reaction is performed in a final volume of 10 μl per well of a low volume non-binding CORNING, 384 well black plate (Cat. No. #3676). The final concentrations of ATP and phosphatidyl inositol (PI) in the assay are 1 μM and 10 μg/mL, respectively. The reaction is started by the addition of ATP.
(§2) The components of the assay are added per well as follows:
(§3) 50 nl test compounds in 90% DMSO per well, in columns 1-20, 8 concentrations (1/3 and 1/3.33 serial dilution step) in single. • Low control: 50 nl of 90% DMSO in half the wells of columns 23-24 (0.45% in final). • High control: 50 nl of reference compound (e.g. compound of Example 7 in WO 2006/122806) in the other half of columns 23-24 (2.5 μM in final). • Standard: 50 nl of reference compound as just mentioned diluted as the test compounds in columns 21-22. • 20 mL ‘buffer’ are prepared per assay: • 200 μl of 1M TRIS HCl pH7.5 (10 mM in final) • 60 μl of 1M MgCl2 (3 mM in final) • 500 μl of 2M NaCl (50 mM in final) • 100 μl of 10% CHAPS (0.05% in final) • 200 μl of 100 mM DTT (1 mM in final) • 18.94 mL of nanopure water • 10 mL ‘PI’ are prepared per assay: • 200 μl of 1 mg/mL 1-alpha-Phosphatidylinositol (Liver Bovine, Avanti Polar Lipids Cat. No. 840042C MW=909.12) prepared in 3% OctylGlucoside (10 μg/mL in final) • 9.8 mL of ‘buffer’ • 10 mL ‘ATP’ are prepared per assay: • 6.7 μl of 3 mM stock of ATP giving a final concentration of 1 μM per well • 10 mL of ‘buffer’ • 2.5 mL of each PI3K construct are prepared per assay in ‘PI’ with the following final concentration: • 10 nM PI3K alfa EMV B1075 • 25 nM beta EMV BV949 • 10 nM delta EMV BV1060 • 150 nM gamma EMV BV950 • 5 μl of ‘PI/PI3K’ are added per well. • 5 μl ‘ATP’ are added per well to start the reaction. • The plates are then incubated at room temperature for 60 minutes (alfa, beta, delta) or 120 minutes (gamma). • The reaction is terminated by the addition of 10 μl Kinase-Glo (Promega Cat. No. #6714). • The assay plates are read after 10 minutes in Synergy 2 reader (BioTek, Vermont USA) with an integration time of 100 milliseconds and sensitivity set to 191. • Output: The High control is around 60'000 counts and the Low control is 30'000 or lower • This luminescence assay gives a useful Z′ ratio between 0.4 and 0.7
(§4) IC50 is determined by a four parameter curve fitting routine that comes along with “excel fit”. A four parameter logistic equation is used to calculate IC50 values (IDBS XLfit) of the percentage inhibition of each compound at 8 concentrations (usually 10, 3.0, 1.0, 0.3, 0.1, 0.030, 0.010 and 0.003 μM). Alternatively, IC50 values are calculated using idbsXLfit model 204, which is a 4 parameter logistic model.
(§5) Yet alternatively, for an ATP depletion assay, compounds of the formula I to be tested are dissolved in DMSO and directly distributed into a white 384-well plate at 0.5 μl per well. To start the reaction, 10 μl of 10 nM PI3 kinase and 5 μg/mL 1-alpha-phosphatidylinositol (PI) are added into each well followed by 10 μl of 2 μM ATP. The reaction is performed until approx 50% of the ATP is depleted, and then stopped by the addition of 20 μl of Kinase-Glo solution (Promega Corp., Madison, Wis., USA). The stopped reaction is incubated for 5 minutes and the remaining ATP is then detected via luminescence. IC50 values are then determined.
Background: Kinase-Glo reads ATP consumption through a luciferase reaction.

The next test concerns the target T2, PI3K alpha (Homo sapiens, UniProt P42336).
T2 construct: His tag (C); made in house; host or cells: baculovirus; Tn5 (Trichoplusia ni) or TiniPro insect cells
The test can be described thus: Enzymatic PI3K alpha isoform inhibition (lipid kinase activity, Kinase-Glo). It counts as biochemical. As to conditions: enzymatic assay. The protocol:
The kinase reaction is performed in a final volume of 50 μl per well of a half area COSTAR, 96 well plate. The final concentrations of ATP and phosphatidyl inositol in the assay are 5 μM and 6 μg/mL, respectively. The reaction is started by the addition of PI3 kinase, e.g. PI3 kinase δ.
as §1, §2, §3, §4, §5

Structures are written as SMILES.

For orientation: IC50 means the concentration at which inhibition is half-maximal.

T2 sequence (P42336 with tags, fused parts or gaps limits assumed): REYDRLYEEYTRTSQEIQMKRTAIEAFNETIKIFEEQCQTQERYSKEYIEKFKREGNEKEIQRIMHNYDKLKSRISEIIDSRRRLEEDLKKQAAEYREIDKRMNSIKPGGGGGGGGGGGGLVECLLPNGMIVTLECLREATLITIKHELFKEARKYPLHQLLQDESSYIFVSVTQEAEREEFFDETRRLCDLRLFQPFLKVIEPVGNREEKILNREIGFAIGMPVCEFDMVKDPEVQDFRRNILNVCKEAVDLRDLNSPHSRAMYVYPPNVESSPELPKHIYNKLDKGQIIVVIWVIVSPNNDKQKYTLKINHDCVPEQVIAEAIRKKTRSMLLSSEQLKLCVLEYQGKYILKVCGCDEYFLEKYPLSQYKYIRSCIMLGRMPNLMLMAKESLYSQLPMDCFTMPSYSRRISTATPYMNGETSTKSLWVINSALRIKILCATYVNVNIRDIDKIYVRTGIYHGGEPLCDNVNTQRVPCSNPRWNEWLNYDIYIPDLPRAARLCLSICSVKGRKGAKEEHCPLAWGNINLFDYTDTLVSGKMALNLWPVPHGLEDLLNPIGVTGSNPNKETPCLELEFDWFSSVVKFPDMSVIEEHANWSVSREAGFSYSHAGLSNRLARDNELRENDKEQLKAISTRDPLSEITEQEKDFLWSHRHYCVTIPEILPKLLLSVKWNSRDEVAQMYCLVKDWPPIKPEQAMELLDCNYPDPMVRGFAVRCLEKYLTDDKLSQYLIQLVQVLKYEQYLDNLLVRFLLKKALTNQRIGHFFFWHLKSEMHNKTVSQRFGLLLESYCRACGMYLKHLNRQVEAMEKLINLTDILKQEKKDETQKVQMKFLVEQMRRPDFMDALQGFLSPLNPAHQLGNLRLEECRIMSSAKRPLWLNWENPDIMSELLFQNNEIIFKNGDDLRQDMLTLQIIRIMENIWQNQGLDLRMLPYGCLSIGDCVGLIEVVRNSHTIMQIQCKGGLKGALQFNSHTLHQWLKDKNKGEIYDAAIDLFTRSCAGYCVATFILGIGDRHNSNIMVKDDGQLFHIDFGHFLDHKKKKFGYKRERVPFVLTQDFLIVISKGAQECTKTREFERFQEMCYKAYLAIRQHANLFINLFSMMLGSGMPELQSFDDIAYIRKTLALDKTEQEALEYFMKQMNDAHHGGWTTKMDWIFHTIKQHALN
T1 sequence (O00329 with tags, fused parts or gaps limits assumed): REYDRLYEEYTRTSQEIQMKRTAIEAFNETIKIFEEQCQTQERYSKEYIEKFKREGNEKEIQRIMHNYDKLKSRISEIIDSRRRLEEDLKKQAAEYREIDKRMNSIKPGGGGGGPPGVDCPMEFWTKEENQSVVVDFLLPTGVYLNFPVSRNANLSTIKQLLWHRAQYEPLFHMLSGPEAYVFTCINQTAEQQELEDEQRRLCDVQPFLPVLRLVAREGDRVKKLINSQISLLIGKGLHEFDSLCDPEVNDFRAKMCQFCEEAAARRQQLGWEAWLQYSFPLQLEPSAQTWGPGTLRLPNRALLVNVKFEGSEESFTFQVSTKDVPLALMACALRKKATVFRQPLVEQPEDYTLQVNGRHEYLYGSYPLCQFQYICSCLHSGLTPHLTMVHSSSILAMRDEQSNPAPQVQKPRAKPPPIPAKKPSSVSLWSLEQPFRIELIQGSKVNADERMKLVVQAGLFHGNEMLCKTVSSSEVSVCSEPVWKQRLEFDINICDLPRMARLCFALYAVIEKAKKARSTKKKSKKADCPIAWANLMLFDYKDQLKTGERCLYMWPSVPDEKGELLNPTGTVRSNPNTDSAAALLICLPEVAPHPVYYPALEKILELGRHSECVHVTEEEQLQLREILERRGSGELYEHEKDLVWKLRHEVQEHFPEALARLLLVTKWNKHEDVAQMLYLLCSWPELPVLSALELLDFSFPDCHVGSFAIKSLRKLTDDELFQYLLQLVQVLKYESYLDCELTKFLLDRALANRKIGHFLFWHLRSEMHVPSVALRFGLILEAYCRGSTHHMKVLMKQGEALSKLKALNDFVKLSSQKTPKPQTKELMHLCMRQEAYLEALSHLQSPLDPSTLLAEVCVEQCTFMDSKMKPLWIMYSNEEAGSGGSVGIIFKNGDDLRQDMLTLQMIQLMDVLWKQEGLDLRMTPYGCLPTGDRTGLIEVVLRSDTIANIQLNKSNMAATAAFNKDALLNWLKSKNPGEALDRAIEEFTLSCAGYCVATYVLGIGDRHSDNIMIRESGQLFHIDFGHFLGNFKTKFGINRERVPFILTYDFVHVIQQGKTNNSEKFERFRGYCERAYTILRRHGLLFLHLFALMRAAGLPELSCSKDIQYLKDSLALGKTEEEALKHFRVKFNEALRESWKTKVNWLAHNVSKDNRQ

For `COc1ncc(-c2ccnc3ccc(O[C@H]4CCN(C(=O)C5CCS(=O)(=O)CC5)C4)c(C)c23)cc1C(F)F` [Example B4, {(S)-3-[4-(5-Difluoromethyl-6-methoxy-pyridin-3-yl)-5-methyl-quinolin-6-yloxy]-pyrrolidin-1-yl}-(1,1-dioxo-hexahydro-1lambda*6*-thiopyran-4-yl)-methanone], the IC50 on PI3K delta was 0.005 µM; on PI3K alpha it was 0.177 µM.

Regarding `Cc1cc(-c2ccnc3ccc(O[C@H]4CCN(C(=O)C5CCS(=O)(=O)CC5)C4)cc23)cnc1S(C)(=O)=O` [Example A23, (1,1-Dioxo-hexahydro-1lambda*6*-thiopyran-4-yl)-{(S)-3-[4-(6-methanesulfonyl-5-methyl-pyridin-3-yl)-quinolin-6-yloxy]-pyrrolidin-1-yl}-methanone], the IC50 was found to be 0.01 µM on PI3K delta and 1.14 µM at PI3K alpha.

Consider `COc1ncc(-c2ccnc3ccc(O[C@H]4CCN(C(=O)C5CCOCC5)C4)cc23)cc1F` [Example A13, {(S)-3-[4-(5-Fluoro-6-methoxy-pyridin-3-yl)-quinolin-6-yloxy]-pyrrolidin-1-yl}-(tetrahydro-pyran-4-yl) methanone], for which the results for the IC50 at PI3K delta and at PI3K alpha were 0.005 µM and 0.802 µM, respectively.

Turning to `CC(=O)N1CC[C@@H](C(=O)N2CC[C@H](Oc3ccc4nccc(-c5cnc(S(C)(=O)=O)c(C)c5)c4c3)C2)C1` [Example A21, 1-((R)-3-{(S)-3-[4-(6-Methanesulfonyl-5-methyl-pyridin-3-yl)-quinolin-6-yloxy]-pyrrolidine-1-carbonyl}-pyrrolidin-1-yl)-ethanone], the results for the half-inhibitory concentration (IC50) on PI3K delta and at PI3K alpha were 0.007 µM and 0.822 µM, respectively.

For the origin of these results see patent US20150148377A1, “Quinoline Derivatives” (NOVARTIS AG, priority 2011, published 2015).
